Measurements published in patent US6498168B2, “Muscarinic antagonists” (Schering Corporation, priority 1995, dated 2002).
Read-outs that look alike come from different tables or passages of the source.

Tests used:
[1] = test system: ACh release from striatum; format: in vivo, rat; settings: for Peak ACh release as % increase over Baseline: striatum of conscious rat
Description: Surgery: For these studies, male Sprague-Dawley Rats (250-350 g) were anesthetized with sodium pentobarbital (54 mg/kg, ip) and placed on a Kopf sterotaxic apparatus. The skull was exposed and drilled through to the dura at a point 0.2 mm anterior and 3.0 mm lateral to the bregma. At these coordinates, a guide cannula was positioned at the outer edge of the dura through the drilled opening, lowered perpendicularly to a depth of 2.5 mm, and permanently secured with dental cement to bone screws. Following the surgery, rats were given ampicillin (40 mg/kg, ip) and individually housed in modified cages. A recovery period of approximately 3 to 7 days was allowed before the microdialysis procedure was undertaken.
Microdialysis: All of the equipment and instrumentation used to conduct in vivo microdialysis was obtained from Bioanalytical Systems, Inc. (BAS). The microdialysis procedure involved the insertion through the guide cannula of a thin, needle-like perfusable probe (CMA/12,3 mm×0.5 mm) to a depth of 3 mm in striatum beyond the end of the guide. The probe was connected beforehand with tubing to a microinjection pump (CMA-/100). Rats were collared, tethered, and, following probe insertion, were placed in a large, clear, plexiglass bowl with litter material and access to food and water. The probe was perfused at 2 μl/min with Ringer's buffer (NaCl 147 mM; KCl 3.0 mM; CaCl2 1.2 mM; MgCl2 1.0 mM) containing 5.5 mM glucose, 0.2 mM L-ascorbate, and 1 μM neostigmine bromide at pH 7.4). To achieve stable baseline readings, microdialysis was allowed to proceed for 90 minutes prior to the collection of fractions. Fractions (20 μl) were obtained at 10 minute intervals over a 3 hour period using a refrigerated collector (CMA170 or 200). Four to five baseline fractions were collected, following which the drug or combination of drugs to be tested was administered to the animal. Upon completion of the collection, each rat was autopsied to determine accuracy of probe placement.
Acetylcholine (ACh) analysis: The concentration of ACh in collected samples of microdialysate was determined using HPLC/electrochemical detection. Samples were auto-injected (Waters 712 Refrigerated Sample Processor) onto a polymeric analytical HPLC column (BAS, MF-6150) and eluted with 50 mM Na2HPO4, pH 8.5. To prevent bacterial growth, Kathon CG reagent (0.005%) (BAS) was included in the mobile phase. Eluent from the analytical column, containing separated ACh and choline, was then immediately passed through an immobilized enzyme reactor cartridge (BAS, MF-6151) coupled to the column outlet. The reactor contained both acetylcholinesterase and choline oxidase covalently bound to a polymeric backbone. […] Data acquisition was carried out using an IBM Model 70 computer equipped with a microchannel IEEE board. Integration and quantification of peaks were accomplished using “Maxima” chromatography software (Waters Corporation). Total run time per sample was 11 minutes at a flow rate of 1 ml/min. Retention times for acetylcholine and choline were 6.5 and 7.8 minutes, respectively. To monitor and correct for possible changes in detector sensitivity during chromatography, ACh standards were included at the beginning, middle and end of each sample queue.
Increases in ACh levels are consistent with presynaptic m2 receptor antagonism.

ACh release from cortex = assay: Microdialysis, ACh release from cortex of conscious rat; format: in vivo

## COc1ccc([S+]([O-])c2ccc(C(C#N)N3CCN(C4CCCCC4)CC3)cc2)cc1 (single isomer, unassigned) [Compound 169]
[1]; oral administration, brain region not stated
  increase in ACh release: significant increase
[1]; 0.1 mg/kg i.p. (FIG. 2)
  Peak ACh release as % increase over Baseline: 10%
[1]; 1 mg/kg i.p. (FIG. 2)
  Peak ACh release as % increase over Baseline: 30%
[1]; 3 mg/kg i.p. (FIG. 2)
  Peak ACh release as % increase over Baseline: 125%
[1]; 10 mg/kg i.p. (FIG. 2)
  Peak ACh release as % increase over Baseline: 150%
[1]; 30 mg/kg i.p. (FIG. 2)
  Peak ACh release as % increase over Baseline: 270%
[1]; Compound 169 1 mg/kg i.p. (FIG. 4)
  Peak ACh release as % increase over Baseline: 40 (FIG. 4) %
ACh release from cortex; 1 mg/kg i.p. (FIG. 1)
  Peak ACh release as % increase over Baseline: 75%
ACh release from cortex; 10 mg/kg i.p. (FIG. 1)
  Peak ACh release as % increase over Baseline: 400%
ACh release from cortex; 30 mg/kg i.p. (FIG. 1)
  Peak ACh release as % increase over Baseline: 1500%
